Data on one molecule can be found in patent publication US5597798A, “Taxol and epidermal growth factor used to enhance treatment of ovarian cancer” (The Regents of the University of California, priority 1994, dated 1997).

The structures appear in SMILES notation.

Series [1] relates to 2008 cells. The series is described as follows: Colony forming (colonogenic) assay, effect of TPA, phorbol and staurosporine on DDP sensitivity.
For another series, the system named is human KB carcinoma cells. The following applies: TPA treatment; cited from earlier work.
In the next series the test system is 2008/C13*5 cells. The series is described as follows: Colonogenic assay, effect of TPA on DDP sensitivity of DDP-resistant cells. The series is classed as cell-based, human. The following applies: TPA and DDP concurrently for 1 h. The source says: The following cell lines were used in these studies: 2008 human ovarian carcinoma (Disaia, et al., Am. J. Obstet. Gynecol. 114:978 (1972)), COLO 316 human ovarian carcinoma (Woods et al., Cancer Res. 39:4449 (1979)), a DDP resistant variant 2008/C13*, derived from the parent 2008 cell line (Andrews, et al., Cancer Res. 45:6250 (1985)), A549 non-small cell lung cancer (Lieber et al., Int. J. Cancer 17:62 (1976)), NCI-H520 squamous cell lung cancer (Brower et al., Cancer Res. 46: 798 (1986)), NCI-H596 adenosquamous lung cancer (Banks-Schlegel et al., Cancer Res. 45: 1187 (1985)), UMC 31 small cell lung cancer cells (Graziano et al., Genes, Chromosomes and Cancer 3: 283 (1991)), GLC4 small cell lung cancer cells (Zijlstra et al., Cancer Res. 47: 1780 (1987)), UMCC10b head and neck cancer cells (Krause et al., Arch. Otolayngol. 107: 703 (1981)), 5637 bladder cancer cells (Fogh et al., J. Natl. Cancer Inst. 58: 209 (1977)), MIA PaCa-2 pancreatic cancer cells (Yunis et al., Int. […]
Colony forming assays were used to assess the effect of each drug on the sensitivity of various tumor cell lines to cytotoxic agents (Andrews, et al., Chem.-Biol. Interact 65:51-58 (1988)). […] Colonies of over 60 cells were counted macroscopically.
The 2008/C13*5 cell line is 8-10-fold resistant to DDP. […] Drug cytotoxicity was determined by colonogenic assay on plastic dishes. […]

Another series concerns cellular cAMP. The series is described as follows: Determination of cellular cAMP content. Format: cell-based.
Series [2] deals with 2008 cells. The series is described as follows: Cellular accumulation of [195mPt]DDP. Format: cell-based, human. The following applies: concurrent 60 min. Here is the method: Cell-associated ^195m Pt was determined by as a measure of DDP accumulation. For DDP accumulation studies, subconfluent monolayers were treated with 37° C. RPMI 1640 medium containing 20 μM [^195m Pt]-DDD. The dishes were immediately returned to the incubater. After 1 h incubation, the medium was aspirated, the cells were washed rapidly with 4° C. PBS 4 times. Two ml of 1N NaOH was added and the cells allowed to digest overnight. A forty μl aliquot was used for determination of protein content by the method of Bradford (Bradford, Anal. Biochem. 72:248-254 (1976)), and the remaining […] was counted in glass tubes on a Trak 1191 gamma counter (Tracer Analytic, EIK Grove Village, Ill.). Columns represent the mean values of 3 experiments performed with duplicate cultures. The bars represent the standard deviation.
Cultured 2008 cells were treated concurrently with [^195m Pt]DDP and TPA for 60 min. A vehicle control consisting of an appropriate dilution of acetone was run concurrently. […] Cells treated with medium alone contained 140±13 pmol/mg of protein, whereas those treated with the acetone control contained 141±7 pmol/mg of protein, and those treated with TPA contained 143±21 pmol/mg of protein.

A short description of series [3]: Colony formation, TPA sensitization to DDP with cycloheximide (CHM). The series is classed as cell-based. The following applies: 2 μM DDP with 10^-7 M TPA 1 h.

Turning to `CCCCCCCCCCCCCC(=O)O[C@@H]1[C@@H](C)[C@@]2(O)[C@@H](C=C(CO)C[C@]3(O)C(=O)C(C)=C[C@@H]23)[C@H]2C(C)(C)[C@]12OC(C)=O` [TPA], the “interaction between TPA and DDP, median effect analysis” value in the series with 2008 cells [1] is given as “truly synergistic”. In addition, the “loss of TPA sensitization” value in the series with 2008 cells [1] (0.1 μM TPA 1 h, 2 μM DDP 1 h) was “largely disappeared by 7 h”. For the same molecule, the “survival, % of control” value with 2008 cells [1] (2 μM DDP plus 0.1 μM TPA) was found to be 38±16%. Besides, in the series on 2008 cells [1] (2 μM DDP plus TPA, no staurosporine), the “survival normalized to 2 μM DDP alone = 100%” value is on record as 44%. Besides, in the series on 2008 cells [1] (24-h exposure to 0.1 μM TPA followed by 1-h exposure to DDP), the “DDP sensitization after TPA pretreatment” value is recorded as “a similar degree of sensitization was observed”. Also, the “increase in DDP sensitivity” value with 2008 cells [1] (TPA and DDP concurrently for 1 h) is reported as 2.5 fold. Further, the “toxicity of TPA by itself” value with 2008 cells [1] (concentrations) was “did not cause any toxicity by itself”. For the same molecule, the “DDP sensitization under continuous exposure” value with 2008 cells [1] (continuous exposure to both TPA and DDP for the full period of colony formation) is given as “no change in DDP sensitivity was evident”. Further, the “decrease in sensitivity to etoposide and vincristine” value in the series with human KB carcinoma cells is recorded as 50%. Besides, in the series on 2008/C13*5 cells, the “sensitization to DDP” value stood at 2.6 fold. For the same molecule, the “cAMP level, 10 min. mean” value in the series on cellular cAMP (10 min treatment, means of 6 experiments) was 2.7 pmol/mg protein. In addition, in the series with cellular cAMP (60 min), the “cAMP level, % of the untreated control” value is listed as 38% and the “cAMP level, % of the vehicle control” value is on record as 65%. In the series on cellular cAMP (60 min treatment, means of 6 experiments), the “cAMP level, 60 min. mean” value is 8.2 pmol/mg protein. Also, in the series on 2008 cells [2], the “effect of TPA on cellular accumulation of [195mPt]DDP” value is reported as “neither the acetone nor the TPA produced any effect on cellular accumulation”. Further, the “survival, % of control (S.D.)” value in series [3] (absence of CHM) is 33±5%. The “survival, % of controls (S.D.)” value in series [3] (presence of CHM 5 μg/ml) amounted to 41±7%.
